Measured values published in US20140315972A1, “RS)-2-(2-oxo-4-phenylpyrrolidin-1-yl)acetamide compound having modulatory activity with a commensurate effect, pharmaceutical substance (variants) and its application, composition (variants) thereof” (priority 2011, published 2014).
Where two headings read alike, the source gives them in different places. Marks after values point to notes of the source that are not given here.

Assays:
rats [1] = test: Locomotor activity in Opto-varimex, HEF and LEF rats; format: in vivo
Text: (RS)-2-(2-oxo-4-phenylpyrrolidin-1-yl)acetamide has a psychomodulatory activity with the commensurate effect on motor activity of rats.

mice [2] = test: Conflict situation (tranquilizing effect); format: in vivo; conditions: 300 mg/kg
Experimental: The tranquilizing effect of Phenotropil (300 mg/kg) was studied by the method of conflict situation and conflict of two reflexes (Vogel, 1971; Sanger et al., 1991; File, 1995; Molodavkin, Voronina, 1995), associated in this case with the desire to satisfy the motivation (drinking) and application of punishment (electric shock, received after each attempt to satisfy the motivation). In the created conflict situation, the animal is experiencing a strong negative stress. Tranquilizers reduce the level of anxiety and psychoemotional stress.

rats [3] = test: Forced swimming with freely rotating wheels by Nomura; format: in vivo; conditions: rat pups
Experimental: The antidepressant effect of Phenotropil was studied in adult rats (185-218 g) and rat pups of 28-35 days of age (85-110 g). The test drugs were injected intraperitoneally in the first case and intragastrically in the second case 40 min before the tests. The methods of behavioral despair during forced swimming (Porsolt et al., 1978) and forced swimming with freely rotating wheels (Nomura et al., 1982) were used.
In the study of depression by Porsolt, no significant differences between the effective doses were found (Table 10), while according to the method of Nomura this difference is statistically significant. At a dose of 100 mg/kg, the efficacy of Phenotropil as compared to the control, was 59.0%. At a dose of 200 mg/kg it was +30.0% in comparison with the control group (Table 10.1). […] The effect of Phenotropil was investigated by the method of Nomura also in mature outbred rats (185-218 g).

patients = test: Seborrhea of scalp and face skin, topical solution; format: in vivo, human; conditions: for Efficacy expressed in points on a 4-point scale (seborrhea): humans
Experimental: A study of effect of Phenotropil on the scalp and face skin in seborrhea oleosa and on the scalp skin in dry seborrhea, as well in the mixed form, was performed on mixed groups of both sexes (15-37 years). The 0.1% Phenotropil solution was used. In the group with mixed form, additional Phenotropil tablets were administered at a dose of 100 mg per day (in the morning). The baseline examinations were used as control. The prepared samples were rubbed into the scalp once a day 1 or 2 hours before bedtime. In the case of acneiform rash, the skin was wiped in the morning and evening by cotton pads soaked (as usual lotion) by 0.1% aqueous Phenotropil. Washing the hair using shampoo was not recommended. A neutral baby soap “Alice” by OAO Svoboda and the rinse prepared with 25 ml of lemon juice and 100 mg Phenotropil powder per 1000.0 ml water were used. Studies were conducted for 28 calendar days with monitoring examinations every 14 days. In the dry seborrhea group, three patients withdrew from the study after two weeks due to reluctance to undergo further examination; they found it difficult to comply with the regime of the detergents use. The skin state was assessed by a 4-point system, where 0—absent, 1—the effect intensity less than 50.0%, 2—the effect intensity more than 50.0%, 3—the effect intensity more than 80% but less than 100.0% of the cases.

mice [4] = format: in vivo; conditions: for Mortality: mice
Experimental: Chemical convulsive agents (bicuculline, corazol, thiosemicarbazide, and picrotoxin) and the maximum electroconvulsive shock (ECS) model in the experiment the different types of seizures with their various implementation mechanisms of pathological conditions. The anticonvulsant activity of Phenotropil after a single dose for all the investigated models manifests in a pronounced positive effect on prevention of mortality in the studied doses of 100, 300, 400, 600 mg/kg. In case of bicuculline-induced seizures, mortality in the control group was 70.0%. Phenotropil (100, 300, 600 mg/kg) was effective in 100% of cases. The metrazole-induced mortality in the control was 60.0% and the positive effect of Phenotropil for mortality vs control was 45-35-0%, depending on the dose, respectively. The thiosemicarbazide-induced mortality was 90.0% in the control group, while when treated with Phenotropil (100, 300, 600 mg/kg), respectively: 60-0-0%. […] In case of MES, mortality in the control group was 100.0%, while in the Phenotropil groups (100, 300, 400 mg/kg) it was 20-0-0%, respectively. […] The anticonvulsant effect of Phenotropil prevents the development of seizures and affects the outcome of convulsive states, preventing mortality in all applied models of seizures in animals. The mechanisms of action of anticonvulsant activity of Phenotropil are probably also commensurate, various and depend on the initial state.

NC(=O)CN1CC(c2ccccc2)CC1=O (racemic) [Compound 1, (RS)-2-(2-oxo-4-phenylpyrrolidine-1-yl)acetamide]
locomotor activity vs control (rats [1]; HEF rats, 5 mg/kg i.g., 0-5 min): −0.06% | locomotor activity vs control (rats [1]; HEF rats, 5 mg/kg i.g., 5-10 min): +7.36% * | locomotor activity vs control (rats [1]; HEF rats, 5 mg/kg i.g., 10-15 min): −7.36% | locomotor activity vs control (rats [1]; HEF rats, 5 mg/kg i.g., 15-20 min): −96.53% * | locomotor activity vs control (rats [1]; HEF rats, 5 mg/kg i.g., 20-25 min): −103.15% * | locomotor activity vs control (rats [1]; HEF rats, 5 mg/kg i.g., 25-30 min): +207.1% * | locomotor activity vs control (rats [1]; HEF rats, 10 mg/kg i.g., 0-5 min): −4.2% | locomotor activity vs control (rats [1]; HEF rats, 10 mg/kg i.g., 5-10 min): −8.4% | locomotor activity vs control (rats [1]; HEF rats, 10 mg/kg i.g., 10-15 min): −3.73% | locomotor activity vs control (rats [1]; HEF rats, 10 mg/kg i.g., 15-20 min): +7.44% | locomotor activity vs control (rats [1]; HEF rats, 10 mg/kg i.g., 20-25 min): −4.72% | locomotor activity vs control (rats [1]; HEF rats, 10 mg/kg i.g., 25-30 min): 0% | locomotor activity vs control (rats [1]; HEF rats, 10 mg/kg i.g., accumulated, listed as Phenotropil, 10 mg/kg): −4.23% | locomotor activity vs control (rats [1]; LEF rats, 5 mg/kg i.g., 0-5 min): +15.0% * | locomotor activity vs control (rats [1]; LEF rats, 5 mg/kg i.g., 5-10 min): +6.18% | locomotor activity vs control (rats [1]; LEF rats, 5 mg/kg i.g., 10-15 min): +9.74% | locomotor activity vs control (rats [1]; LEF rats, 5 mg/kg i.g., 15-20 min): +29.1% * | locomotor activity vs control (rats [1]; LEF rats, 5 mg/kg i.g., 20-25 min): +2.1% | locomotor activity vs control (rats [1]; LEF rats, 5 mg/kg i.g., 25-30 min): +10.0% * | locomotor activity vs control (rats [1]; LEF rats, 10 mg/kg i.g., 0-5 min): +4.31% | locomotor activity vs control (rats [1]; LEF rats, 10 mg/kg i.g., 5-10 min): +11.31% * | locomotor activity vs control (rats [1]; LEF rats, 10 mg/kg i.g., 10-15 min): +27.85% | locomotor activity vs control (rats [1]; LEF rats, 10 mg/kg i.g., 15-20 min): +7.23 * % | locomotor activity vs control (rats [1]; LEF rats, 10 mg/kg i.g., 20-25 min): +14.39% * | locomotor activity vs control (rats [1]; LEF rats, 10 mg/kg i.g., 25-30 min): +3.75% | locomotor activity vs control (rats [1]; population (normal) rats, 5 mg/kg i.g., 0-5 min): +18.06% * | locomotor activity vs control (rats [1]; population (normal) rats, 5 mg/kg i.g., 5-10 min): −5.95% | locomotor activity vs control (rats [1]; population (normal) rats, 5 mg/kg i.g., 10-15 min): −13.03% * | locomotor activity vs control (rats [1]; population (normal) rats, 5 mg/kg i.g., 15-20 min): −22.55% * | locomotor activity vs control (rats [1]; population (normal) rats, 5 mg/kg i.g., 20-25 min): +50.76% * | locomotor activity vs control (rats [1]; population (normal) rats, 5 mg/kg i.g., 25-30 min): +50.97% * | locomotor activity vs control (rats [1]; population (normal) rats, 5 mg/kg i.g., accumulated): +4.28% * | locomotor activity vs control (rats [1]; population (normal) rats, 10 mg/kg i.g., 0-5 min): +38.8% * | locomotor activity vs control (rats [1]; population (normal) rats, 10 mg/kg i.g., 5-10 min): −5.78% | locomotor activity vs control (rats [1]; population (normal) rats, 10 mg/kg i.g., 10-15 min): +5.56% | locomotor activity vs control (rats [1]; population (normal) rats, 10 mg/kg i.g., 15-20 min): +42.91 * % | locomotor activity vs control (rats [1]; population (normal) rats, 10 mg/kg i.g., 20-25 min): +95.6% * | locomotor activity vs control (rats [1]; population (normal) rats, 10 mg/kg i.g., 25-30 min): −91.47% * | locomotor activity vs control (rats [1]; population (normal) rats, 10 mg/kg i.g., accumulated): +18.0% * | reduction of amount of intakes for three minutes (mice [2]): 74.4% | reduction of anxiety and emotional stress in the conflict situation vs control (mice [2]): 291.0% | Number of water intakes for 3 min (mice [2]; mice): 7.3 ± 3.9 | The time between the first and second intake of water (mice [2]; mice): 31.1 ± 3.4 s | Number of revolutions (rats [3]; 100 mg/kg): 175.4 ± 22.98 | Number of revolutions (rats [3]; 200 mg/kg): 143.4 ± 33.14 | therapeutic effect compared to control with simultaneous tablets (patients; 0.1% solution + tablets 100 mg per day): 300.0% | therapeutic effect in seborrhoea compared with control (patients; 0.1% solution, 28 days): 200.0% | Efficacy expressed in points on a 4-point scale (seborrhea) (patients; DF (dry form), topically 0.1% aqueous solution): 2* (the effect intensity more than 50.0%) | Efficacy expressed in points on a 4-point scale (seborrhea) (patients; MF (mixed form), oral 100 mg): 1* (the effect intensity less than 50.0%) | Efficacy expressed in points on a 4-point scale (seborrhea) (patients; MF (mixed form), topically 0.1% aqueous solution + 100 mg orally): 3* (the effect intensity more than 80% but less than 100.0% of the cases) | Efficacy expressed in points on a 4-point scale (seborrhea) (patients; OF (oily form), topically 0.1% aqueous solution): 2* (the effect intensity more than 50.0%) | effective against mortality, % of cases (mice [4]; bicuculline-induced seizures, 100, 300, 600 mg/kg): 100% | Mortality (mice [4]; Bicuculline 3.0 mg/kg + 100.0 mg/kg): 0* % | Mortality (mice [4]; Bicuculline 3.0 mg/kg + 300.0 mg/kg): 0* % | Mortality (mice [4]; Corazol 110.0 mg/kg + 100.0 mg/kg, listed as Phenotropil): 45% | Mortality (mice [4]; Corazol 110.0 mg/kg + 300.0 mg/kg, listed as Phenotropil): 35% | Mortality (mice [4]; Corazol 110.0 mg/kg + 600.0 mg/kg, listed as Phenotropil): 0% | Mortality (mice [4]; MES + 100.0 mg/kg, listed as Phenotropil, 100 mg/kg): 20% | Mortality (mice [4]; MES + 300.0 mg/kg, listed as Phenotropil, 300 mg/kg): 0% | Mortality (mice [4]; MES + 400.0 mg/kg, listed as Phenotropil, 400 mg/kg): 0% | Mortality (mice [4]; Thiosemicarbazide 18.0 mg/kg + 100.0 mg/kg, listed as Phenotropil): 60% | Mortality (mice [4]; Thiosemicarbazide 18.0 mg/kg + 300.0 mg/kg, listed as Phenotropil): 0% | Mortality (mice [4]; Thiosemicarbazide 18.0 mg/kg + 600.0 mg/kg, listed as Phenotropil): 0%
